pIC50: −log10 of the molar value. Like-named read-outs stand apart in the source and are kept apart here.
What was measured:
[1] = biological target: T1, human TRPV1 receptor (hTRPV1) (Homo sapiens (Human), UniProt Q8NER1); test: Acid activation assay (pH 5.0, FLIPR intracellular Ca2+); format: cell-based; settings: 37.5 μM antagonist, percentage of the maximal pH 5.0-induced response remaining, read-out: hTRPV1 H+ (max % remain)
In short: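 Antagonism of acid-evoked Ca2+ influx measured by FLIPR Calcium-4 fluorescence after a pH 5.0 DPBS/MES stimulus, with compounds preincubated 3 min over 12 half-log concentrations. Cells: stable hTRPV1-expressing 1321N1 line, dye-loaded 90–120 min in the dark at 25 °C.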

Sprague-Dawley rats [2] = test: Rat acute capsaicin-induced flinching behavior; format: in vivo; settings: 100 μmol/kg p.o., percent reduction in number of flinching behaviors
Excerpt: (§1) Adult male Sprague-Dawley rats (250-300 g body weight, Charles River Laboratories, Portage, Mich.) were used. Animal handling and experimental protocols were approved by the Institutional Animal Care and Use Committee (IACUC) at Abbott Laboratories. For all surgical procedures, animals were maintained under isoflurane anesthesia (4-5% to induce, 1-3% to maintain), and the incision sites were sterilized using a 10% povidone-iodine solution prior to and after surgeries.
Rats were placed in individual observation cages. […] One hour after administration of the test compound, 2.5 μg of capsaicin in a 10 μL solution of 10% ethanol/90% hydroxypropyl-β-cyclodextrin was injected subcutaneously into the dorsal aspect of the right hind paw. The observation cage was then suspended above mirrors in order to facilitate observation. […] The number of flinching behaviors of the injured paw was recorded during the five minute observation period (Gilchrist, H. D.; Allard, B. L.; Simone, D. A.; Enhanced withdrawal responses to heat and mechanical stimuli following intraplantar injection of capsaicin in rats. Pain, 1996, 67, 179-188). The percent reduction in the number of flinching behaviors produced with oral administration of representative compounds of the present invention relative to control-treated animals (% effect) is reported in Table 3.

Sprague-Dawley rats [3] = test: Rat tail immersion assay (noxious thermosensation); format: in vivo; settings: rat, 100 μmol/kg oral, one hour post dosing, 55° C. water bath, relative to vehicle
Protocol: as §1
Compounds were tested for their effects on noxious thermosensation using the tail immersion assay. Testing was performed one hour following oral administration of 100 μmol/kg of the compound in 10% ethanol/20% Tween-80/70% PEG-400 (2 mL/kg). Morphine (6 mg/kg) was administered interperitoneally (i.p.) using saline (2 mL/kg) as the vehicle. For testing, a circulating water bath was heated to 55° C. Thirty to sixty minutes post dosing, the rats were handled for a few seconds to calm them down and then cupped with their back against the tester's hand at a slight angle with head facing away from the tester. With rat in one hand and a 0.01 second stopwatch in the other hand, the tail was quickly immersed 6-8 cm in the water bath or to a distance leaving 2-3 cm of tail out of water. The timer was started simultaneously. When the rat flinched or attempted withdrawal, timer was immediately stopped and the rat's tail was quickly removed from water bath. This response latency (in seconds) was recorded. Process was repeated 3 times with 3-4 minutes between readings and the average response latency was calculated.
For a given example, a percent increase in the average response latency (in seconds) for tail withdrawal relative to a vehicle control was determined. % increase=[(tc−tv)/tv]×100%
tc=response latency (in seconds) with oral dosing of compounds
tv=response latency (in seconds) with oral dosing of vehicle
The % increases in tail withdrawal latency relative to vehicle control are divided into the following categories: […]

[4] = biological target: T1, human TRPV1 receptor (hTRPV1); test: Capsaicin activation assay (FLIPR intracellular Ca2+); format: cell-based; settings: inhibition of capsaicin-induced intracellular Ca2+ increase, read-out: hTRPV1 cap IC50
In short: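 Antagonism measured as [Ca2+]i fluorescence on FLIPR Tetra: compounds given 3 min ahead of capsaicin, added as 200 nM (4×), to dye-loaded hTRPV1-HEK293 cells. Response taken as baseline-subtracted peak, normalized to the 50 nM capsaicin control; 12-point one-third-log titrations.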

Sprague-Dawley rats [5] = test: Sodium iodoacetate-induced knee joint osteoarthritic pain model; format: in vivo, rat; settings: 10 mg/kg p.o., 1 hour after dosing, % return to normalcy of hind limb grip force
Excerpt: as §1
Unilateral knee joint osteoarthritis was induced in the rats by a single intra-articular (i.a.) injection of sodium iodoacetate (3 mg in 0.05 mL sterile isotonic saline) into the right knee joint cavity under light isoflurane anesthesia using a 26 G needle. […] Pain behavioral assessment of hind limb grip force was conducted by recording the maximum compressive force exerted on the hind limb strain gauge setup, in a commercially available grip force measurement system (Columbus Instruments, Columbus, Ohio), to elicit paw withdrawal. The grip force data was converted to a maximum hindlimb cumulative compressive force (CFmax) (gram force)/kg body weight for each animal. The analgesic effects of test compounds were determined 20 days following the i.a. injection of sodium iodoacetate. The vehicle control group for each compound being tested was assigned 0% whereas the age matched naïve group was assigned as being 100% (normal). The % effect for each dose group was then expressed as % return to normalcy compared to the naïve group. Test compounds were administered orally in 10% ethanol/20% Tween 80/70% polyethylene glycol-400 vehicle at a volume of 2 mL/kg. The assessment of the analgesic effects of test compounds was made 1 hour following oral administration. The assessment of the analgesic effects of test compounds can be made following a single dose or following repeated administration wherein the frequency of dosing is 1 to 2 times daily. The duration of such repeated daily dosing may last for any time greater than one day. A typical duration of repeated daily dosing is about 5 days to about 12 days.

[6] = Table 1, HEK293 cells expressing human TRPV1

T1 sequence (Q8NER1 whole entry): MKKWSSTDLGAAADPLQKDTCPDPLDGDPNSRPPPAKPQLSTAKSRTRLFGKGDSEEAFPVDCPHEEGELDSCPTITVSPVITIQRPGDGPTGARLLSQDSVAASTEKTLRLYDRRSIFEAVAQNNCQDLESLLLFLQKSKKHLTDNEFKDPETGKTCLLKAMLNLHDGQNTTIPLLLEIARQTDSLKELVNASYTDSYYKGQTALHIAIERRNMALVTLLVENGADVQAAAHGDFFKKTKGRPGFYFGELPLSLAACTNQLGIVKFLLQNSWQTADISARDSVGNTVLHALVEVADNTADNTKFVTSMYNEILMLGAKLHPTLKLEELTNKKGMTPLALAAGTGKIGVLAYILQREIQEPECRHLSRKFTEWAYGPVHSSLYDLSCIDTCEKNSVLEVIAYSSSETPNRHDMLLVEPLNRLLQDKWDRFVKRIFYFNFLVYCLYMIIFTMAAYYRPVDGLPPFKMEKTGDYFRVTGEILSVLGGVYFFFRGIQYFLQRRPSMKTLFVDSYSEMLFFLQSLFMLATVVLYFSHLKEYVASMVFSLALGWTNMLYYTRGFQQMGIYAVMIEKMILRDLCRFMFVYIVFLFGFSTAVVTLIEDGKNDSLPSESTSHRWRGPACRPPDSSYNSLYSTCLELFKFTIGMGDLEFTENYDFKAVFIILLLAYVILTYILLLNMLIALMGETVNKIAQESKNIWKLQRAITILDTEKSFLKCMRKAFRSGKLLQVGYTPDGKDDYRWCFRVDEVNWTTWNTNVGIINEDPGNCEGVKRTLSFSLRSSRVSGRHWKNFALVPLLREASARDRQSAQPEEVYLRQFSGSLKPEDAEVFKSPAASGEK

Structure (SMILES) | remaining activity at 37.5 µM ([1]; Table 1) [%] | remaining activity at 37.5 µM ([1]; Table 2) [%] | % effect (Sprague-Dawley rats [2]) [%] | % Increase in tail withdrawal latency (Sprague-Dawley rats [3]) | pIC50 [4, 6] | pIC50 ([4]; Table 2) | % effect (Sprague-Dawley rats [5]) [%]
Cn1c(=O)ccc2c(NC(=O)N[C@@H]3CC[C@H](c4ccccc4)C3)cccc21 [Example 51, 1-(1-methyl-2-oxo-1,2-dihydroquinolin-5-yl)-3-((1R,3S)-3-phenylcyclopentyl)urea] | 56 | 56 | 30 | − | 7.89 | 7.89 | 
O=C(Nc1cccc2[nH]ncc12)N[C@@H]1CC[C@H](c2ccccc2F)C1 [Example 61, 1-[(1R,3S)-3-(2-fluorophenyl)cyclopentyl]-3-(1H-indazol-4-yl)urea] | 44 |  |  |  | 7.49 |  | 34
O=C(Nc1cccc2[nH]ncc12)N[C@H]1CC[C@H](c2cccc(F)c2)C1 [Example 64, 1-[(1S,3S)-3-(3-fluorophenyl)cyclopentyl]-3-(1H-indazol-4-yl)urea] | 25 |  |  |  | 7.54 |  | 48
